What was measured:
Assay in all cases: relative viability (nuclei count vs DMSO), 5 days (fraction); higher = more cells survive
GW-2580 + Bortezomib = compound: COC1=CC=C(C=C1)COC2=C(C=C(C=C2)CC3=CN=C(N=C3N)N)OC [GW-2580] + CC(C)C[C@H](NC(=O)[C@H](Cc1ccccc1)NC(=O)c1cnccn1)B(O)O [Bortezomib] (partner 0.002 µM)
In short: (§1)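 Relative viability divides the nuclei count in treated wells by that in vehicle wells. Lung cancer cell lines were seeded in 1536-well plates, dosed by pin tool the next day, and fixed and stained after 5 days in one step with final 0.05% Triton X-100, 1% formaldehyde and 1 ug/ml Hoechst. Dosing was a single drug or a fixed anchor-drug dose plus five library-drug doses (not always all listed) in √10 steps, and values are medians of duplicate plates imaged at 4×.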

GW-2580 + Luminespib = compound: COC1=CC=C(C=C1)COC2=C(C=C(C=C2)CC3=CN=C(N=C3N)N)OC [GW-2580] + CCNC(=O)c1noc(-c2cc(C(C)C)c(O)cc2O)c1-c1ccc(CN2CCOCC2)cc1 [Luminespib] (partner 0.01 µM)
In short: as §1

GW-2580 + Crizotinib = compound: COC1=CC=C(C=C1)COC2=C(C=C(C=C2)CC3=CN=C(N=C3N)N)OC [GW-2580] + C[C@@H](Oc1cc(-c2cnn(C3CCNCC3)c2)cnc1N)c1c(Cl)ccc(F)c1Cl [Crizotinib] (partner 1 µM)
In short: as §1

GW-2580 + Vorinostat = compound: COC1=CC=C(C=C1)COC2=C(C=C(C=C2)CC3=CN=C(N=C3N)N)OC [GW-2580] + O=C(CCCCCCC(=O)Nc1ccccc1)NO [Vorinostat] (partner 1 µM)
In short: as §1

Fedratinib + Phenformin = compound: Cc1cnc(Nc2ccc(OCCN3CCCC3)cc2)nc1Nc1cccc(S(=O)(=O)NC(C)(C)C)c1 [Fedratinib] + N=C(N)NC(=N)NCCc1ccccc1 [Phenformin] (partner 250 µM)
In short: as §1

UMC-11
relative viability (GW-2580 + Bortezomib; first compound 0.08 µM): 0.793
relative viability (GW-2580 + Bortezomib; first compound 0.8 µM): 0.758
relative viability (GW-2580 + Bortezomib; first compound 2.53 µM): 0.788
relative viability (GW-2580 + Bortezomib; first compound 8 µM): 0.603
relative viability (GW-2580 + Luminespib; first compound 0.08 µM): 0.992
relative viability (GW-2580 + Luminespib; first compound 0.8 µM): 1.1
relative viability (GW-2580 + Luminespib; first compound 2.53 µM): 1.12
relative viability (GW-2580 + Luminespib; first compound 8 µM): 1.16
relative viability (GW-2580 + Crizotinib; first compound 0.08 µM): 0.599
relative viability (GW-2580 + Crizotinib; first compound 0.8 µM): 0.614
relative viability (GW-2580 + Crizotinib; first compound 2.53 µM): 0.585
relative viability (GW-2580 + Crizotinib; first compound 8 µM): 0.601
relative viability (GW-2580 + Vorinostat; first compound 0.08 µM): 0.384
relative viability (GW-2580 + Vorinostat; first compound 0.8 µM): 0.391
relative viability (GW-2580 + Vorinostat; first compound 2.53 µM): 0.513
relative viability (GW-2580 + Vorinostat; first compound 8 µM): 0.413
relative viability (Fedratinib + Phenformin; first compound 0.1 µM): 0.338
relative viability (Fedratinib + Phenformin; first compound 0.3162 µM): 0.272
relative viability (Fedratinib + Phenformin; first compound 1 µM): 0.359

— the supplement of paper PMC10307832
